# According to patent US20230279025A1, “KRAS G12D INHIBITORS” (Mirati Therapeutics, Inc., priority 2020, published 2023):
# Target: KRas G12D (Homo sapiens (Human), UniProt P01116, G12D)
# Assay: KRas G12D Binding Assay (TR-FRET displacement of Cy5 labelled tracer)
# Settings: GDP-loaded KRAS G12D (amino acids 1:169), 60 minute incubation at 22° C.
# Procedure: After a 60 minute incubation at 22° C., the reaction was measured using a PerkinElmer EnVision multimode plate reader via TR-FRET dual wavelength detection, and the percent of control (POC) calculated using a ratiometric emission factor. […] The POC values were fit to a 4-parameter logistic curve and the IC50 value was determined as the concentration where the curve crosses 50 POC.
# ND stands for “not determined.”
# KRas G12D, sequence (P01116 other isoform, or with tags, fused parts or gaps G12D): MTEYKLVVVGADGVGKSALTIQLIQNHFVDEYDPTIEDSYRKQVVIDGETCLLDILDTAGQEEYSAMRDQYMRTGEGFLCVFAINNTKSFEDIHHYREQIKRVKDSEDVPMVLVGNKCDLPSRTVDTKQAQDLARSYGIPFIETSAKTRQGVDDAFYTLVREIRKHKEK
row,SMILES,IC50
1,"CN1CC[C@H](COc2nc(N3C[C@H]4CC[C@@H](C3)N4)c3cnc(-c4cccc5cccc(Cl)c45)c(F)c3n2)C1 [Example 357, 4-((1R,5S)-3,8-diazabicyclo[3.2.1]octan-3-yl)-7-(8-chloronaphthalen-1-yl)-8-fluoro-2-(((S)-1-methylpyrrolidin-3-yl)methoxy)pyrido[4,3-d]pyrimidine]",438 nM
2,"CCc1ccc(O)cc1-c1ncc2c(N3C[C@H]4CC[C@@H](C3)N4)nc(OCC34CCCN3CCC4)nc2c1F [Example 263, 3-(4-((1R,5S)-3,8-diazabicyclo[3.2.1]octan-3-yl)-8-fluoro-2-((hexahydro-1H-pyrrolizin-7a-yl)methoxy)pyrido[4,3-d]pyrimidin-7-yl)-4-ethylphenol]",1.5 nM
3,"C#CCc1ccc(O)cc1-c1ncc2c(N3C[C@H]4CC[C@@H](C3)N4)nc(OCC34CCCN3CCC4)nc2c1F [Example 279, 3-(4-((1R,5S)-3,8-diazabicyclo[3.2.1]octan-3-yl)-8-fluoro-2-((hexahydro-1H-pyrrolizin-7a-yl)methoxy)pyrido[4,3-d]pyrimidin-7-yl)-4-(prop-2-yn-1-yl)phenol]",1.6 nM
4,"Cc1c(F)cccc1-c1ncc2c(N3C[C@H]4CC[C@@H](C3)N4)nc(OCC34CCCN3CCC4)nc2c1F [Example 294, 4-((1R,5S)-3,8-diazabicyclo[3.2.1]octan-3-yl)-8-fluoro-7-(3-fluoro-2-methylphenyl)-2-((hexahydro-1H-pyrrolizin-7a-yl)methoxy)pyrido[4,3-d]pyrimidine]",620 nM
5,"FCCCc1cccc2cccc(-c3ncc4c(N5C[C@H]6CC[C@@H](C5)N6)nc(OCC56CCCN5CCC6)nc4c3F)c12 [Example 255, 4-((1R,5S)-3,8-diazabicyclo[3.2.1]octan-3-yl)-8-fluoro-7-(8-(3-fluoropropyl)naphthalen-1-yl)-2-((hexahydro-1H-pyrrolizin-7a-yl)methoxy)pyrido[4,3-d]pyrimidine]",8.7 nM
6,"CNc1c(F)cccc1-c1ncc2c(N3C[C@H]4CC[C@@H](C3)N4)nc(OCC34CCCN3CCC4)nc2c1F [Example 268, 2-(4-((1R,5S)-3,8-diazabicyclo[3.2.1]octan-3-yl)-8-fluoro-2-((hexahydro-1H-pyrrolizin-7a-yl)methoxy)pyrido[4,3-d]pyrimidin-7-yl)-6-fluoro-N-methylaniline]",1550 nM
7,"COc1nc(N2C[C@H]3CC[C@@H](C2)N3)c2cnc(-c3cc(O)cc4cccc(Cl)c34)c(F)c2n1 [Example 360, 4-(4-((1R,5S)-3,8-diazabicyclo[3.2.1]octan-3-yl)-8-fluoro-2-methoxypyrido[4,3-d]pyrimidin-7-yl)-5-chloronaphthalen-2-ol]",50.8 nM
8,"C#Cc1cccc2cc(O)cc(-c3ncc4c(N5C[C@H]6CC[C@@H](C5)N6)ncnc4c3F)c12 [Example 244, 4-(4-((1R,5S)-3,8-diazabicyclo[3.2.1]octan-3-yl)-8-fluoropyrido[4,3-d]pyrimidin-7-yl)-5-ethynylnaphthalen-2-ol]",4.2 nM
9,"COc1c(C)cccc1-c1ncc2c(N3C[C@H]4CC[C@@H](C3)N4)nc(OCC34CCCN3CCC4)nc2c1F [Example 313, 4-((1R,5S)-3,8-diazabicyclo[3.2.1]octan-3-yl)-8-fluoro-2-((hexahydro-1H-pyrrolizin-7a-yl)methoxy)-7-(2-methoxy-3-methylphenyl)pyrido[4,3-d]pyrimidine]",231 nM
10,"CC(C)(N)COc1nc(N2CC3CCC(C2)N3)c2cnc(-c3cccc4cccc(Cl)c34)c(F)c2n1 [Example 387, bis(2,2,2-trifluoroacetate)]",533 nM
11,"Fc1c(-c2cccc3cccc(C4CC4)c23)ncc2c(N3C[C@H]4CC[C@@H](C3)N4)nc(OCC34CCCN3CCC4)nc12 [Example 335, 4-((1R,5S)-3,8-diazabicyclo[3.2.1]octan-3-yl)-7-(8-cyclopropylnaphthalen-1-yl)-8-fluoro-2-((tetrahydro-1H-pyrrolizin-7a(5H)-yl)methoxy)pyrido[4,3-d]pyrimidine]",25.8 nM
12,"CO[C@H]1C[C@@H](COc2nc(N3C[C@H]4CC[C@@H](C3)N4)c3cnc(-c4cccc5cccc(Cl)c45)c(F)c3n2)N(C)C1 [Example 149, 4-((1R,5S)-3,8-diazabicyclo[3.2.1]octan-3-yl)-7-(8-chloronaphthalen-1-yl)-8-fluoro-2-(((2S,4S)-4-methoxy-1-methylpyrrolidin-2-yl)methoxy)pyrido[4,3-d]pyrimidine]",870 nM
13,"CSc1cccc2cccc(-c3ncc4c(N5C[C@H]6CC[C@@H](C5)N6)nc(OCC56CCCN5CCC6)nc4c3F)c12 [Example 199, 4-((1R,5S)-3,8-diazabicyclo[3.2.1]octan-3-yl)-8-fluoro-7-(8-(methylthio)naphthalen-1-yl)-2-((tetrahydro-1H-pyrrolizin-7a(5H)-yl)methoxy)pyrido[4,3-d]pyrimidine]",2 nM
14,"CC(C)c1ccncc1-c1ncc2c(N3C[C@H]4CC[C@@H](C3)N4)nc(OCC34CCCN3CCC4)nc2c1F [Example 306, 4-((1R,5S)-3,8-diazabicyclo[3.2.1]octan-3-yl)-8-fluoro-2-((hexahydro-1H-pyrrolizin-7a-yl)methoxy)-7-(4-isopropylpyridine-3-yl)pyrido[4,3-d]pyrimidine]",260 nM
15,"CCc1c(F)ccc2cc(O)cc(-c3ncc4c(N5C[C@H]6CC[C@@H](C5)N6)nc(OCC56CCCN5CCC6)nc4c3F)c12 [Example 314, 4-(4-((1R,5S)-3,8-diazabicyclo[3.2.1]octan-3-yl)-8-fluoro-2-((hexahydro-1H-pyrrolizin-7a-yl)methoxy)pyrido[4,3-d]pyrimidin-7-yl)-5-ethyl-6-fluoronaphthalen-2-ol]",0.6 nM
16,"Fc1c(-c2ccccc2OC(F)F)ncc2c(N3C[C@H]4CC[C@@H](C3)N4)nc(OCC34CCCN3CCC4)nc12 [Example 303, 4-((1R,5S)-3,8-diazabicyclo[3.2.1]octan-3-yl)-7-(2-(difluoromethoxy)phenyl)-8-fluoro-2-((hexahydro-1H-pyrrolizin-7a-yl)methoxy)pyrido[4,3-d]pyrimidine]",357 nM
17,"Cc1cc2sc(N)nc2c(-c2ncc3c(N4C[C@H]5CC[C@@H](C4)N5)nc(OC[C@@]45CCCN4C[C@H](F)C5)nc3c2F)c1C [Example 457, 4-(4-((1R,5S)-3,8-diazabicyclo[3.2.1]octan-3-yl)-8-fluoro-2-(((2R,7aS)-2-fluorohexahydro-1H-pyrrolizin-7a-yl)methoxy)pyrido[4,3-d]pyrimidin-7-yl)-5,6-dimethylbenzo[d]thiazol-2-amine]",475 nM
18,"O=C1OCCN1C[C@H]1CC[C@@]2(COc3nc(N4CC5CCC(C4)N5)c4cnc(-c5cccc6cccc(Cl)c56)c(F)c4n3)CCCN12 [Example 442, 3-(((3R,7aR)-7a-(((4-(3,8-diazabicyclo[3.2.1]octan-3-yl)-7-(8-chloronaphthalen-1-yl)-8-fluoropyrido[4,3-d]pyrimidin-2-yl)oxy)methyl)hexahydro-1H-pyrrolizin-3-yl)methyl)oxazolidin-2-one]",25 nM
19,"O[C@@H]1C[C@@H]2CN(c3nc(OCCn4ccnc4C(F)F)nc4c(F)c(-c5cccc6cccc(Cl)c56)ncc34)C[C@H]1N2 [Example 172, (1R,5R,6R)-3-(7-(8-chloronaphthalen-1-yl)-2-(2-(2-(difluoromethyl)-1H-imidazol-1-yl)ethoxy)-8-fluoropyrido[4,3-d]pyrimidin-4-yl)-3,8-diazabicyclo[3.2.1]octan-6-ol]",689 nM
20,"CCc1cccc2cccc(-c3ncc4c(N5CC6CCC(C5)N6)nc(OC[C@@]56C[C@H](O)CN5C[C@H](O)C6)nc4c3F)c12 [Example 466, (2R,6S,7as)-7a-(((4-((1R,5S)-3,8-diazabicyclo[3.2.1]octan-3-yl)-7-(8-ethylnaphthalen-1-yl)-8-fluoropyrido[4,3-d]pyrimidin-2-yl)oxy)methyl)hexahydro-1H-pyrrolizine-2,6-diol]",0.006 nM
21,"CN1CCc2cccc(Oc3nc(N4C[C@H]5CC[C@@H](C4)N5)c4cnc(-c5cccc6cccc(Cl)c56)c(F)c4n3)c2C1 [Example 378, 4-((1R,5S)-3,8-diazabicyclo[3.2.1]octan-3-yl)-7-(8-chloronaphthalen-1-yl)-8-fluoro-2-((2-methyl-1,2,3,4-tetrahydroisoquinolin-8-yl)oxy)pyrido[4,3-d]pyrimidine]",6250 nM
22,"CN1CCC[C@H]1COc1nc(N2CC3CCC(C2)N3)c2cnc(-c3c(Cl)c(O)cc4ccccc34)c(F)c2n1 [Example 337, 4-(4-(3,8-diazabicyclo[3.2.1]octan-3-yl)-8-fluoro-2-(((S)-1-methylpyrrolidin-2-yl)methoxy)pyrido[4,3-d]pyrimidin-7-yl)-3-chloronaphthalen-2-ol]",2.2 nM
23,"CCc1cccc2cc(O)cc(-c3ncc4c(N5C[C@H]6CC[C@@H](C5)N6)ncnc4c3F)c12 [Example 449, 4-(4-((1R,5S)-3,8-diazabicyclo[3.2.1]octan-3-yl)-8-fluoropyrido[4,3-d]pyrimidin-7-yl)-5-ethylnaphthalen-2-ol]",71 nM
24,"C#Cc1cccc2cccc(-c3ncc4c(N5CC6CCC(C5)N6)ncnc4c3F)c12 [Example 188, 4-(3,8-diazabicyclo[3.2.1]octan-3-yl)-7-(8-ethynyl-1-naphthyl)-8-fluoro-pyrido[4,3-d]pyrimidine]",1920 nM
25,"c1ccc2c(-c3cc4nc(OCC56CCCN5CCC6)nc(N5C[C@H]6CC[C@@H](C5)N6)c4cn3)cccc2c1 [Example 233, 4-((1R,5S)-3,8-diazabicyclo[3.2.1]octan-3-yl)-7-(naphthalen-1-yl)-2-((tetrahydro-1H-pyrrolizin-7a(5H)-yl)methoxy)pyrido[4,3-d]pyrimidine]",387 nM
26,"COc1ccccc1-c1ncc2c(N3C[C@H]4CC[C@@H](C3)N4)nc(OCC34CCCN3CCC4)nc2c1F [Example 273, 4-((1R,5S)-3,8-diazabicyclo[3.2.1]octan-3-yl)-8-fluoro-2-((hexahydro-1H-pyrrolizin-7a-yl)methoxy)-7-(2-methoxyphenyl)pyrido[4,3-d]pyrimidine]",1340 nM
